As usually defined, the IC50 is the point on the concentration scale where inhibition reaches its midpoint.

Among the data in patent US20120015907A1, “Furopyridine compounds and uses thereof” (NOVARTIS AG, priority 2010, published 2012) are IC50 values, retold here.

The target in the first assay is T1, HCV polymerase (Hepatitis C virus genotype 1b, UniProt Q9WMX2).
T1 construct: (His)6 (C)
The assay can be described thus: biochemical. To be noted: NS5B polymerase IC50 μM, polymerase assay of Biological Example 1.
`CCOP(C)(=O)CCCCN(c1nc2oc(-c3ccc(C)cc3)c(C(=O)NC)c2cc1I)S(C)(=O)=O` (stereo not drawn) [Example 23.9995, ethyl 4-(N-(5-iodo-3-(methylcarbamoyl)-2-p-tolylfuro[2,3-b]pyridin-6-yl)methylsulfonamido)butyl (methyl)phosphinate] returned an IC50 of 0.017 µM.

The assay is the same for the next values; noted with them: polymerase assay of Biological Example 1; read-out: NS5B polymerase IC50.
Turning to `CNC(=O)c1c(-c2ccc(C)cc2)oc2nc(N(CCc3ccccc3C(=O)O)S(C)(=O)=O)c(C3CC3)cc12` [Example 45, 2-(2-(N-(5-cyclopropyl-3-(methylcarbamoyl)-2-(p-tolyl)furo[2,3-b]pyridin-6-yl)methylsulfonamido)ethyl)benzoic acid], the IC50 stood at 0.008 µM.

`CCc1cc2c(C(=O)NC)c(-c3ccc(F)cc3)oc2nc1N(CCCC1=C(O)CCC1=O)S(C)(=O)=O` [Example 23.95, 5-ethyl-2-(4-fluorophenyl)-6-(N-(3-(2-hydroxy-5-oxocyclopent-1-enyl)propyl)methylsulfonamido)-N-methylfuro[2,3-b]pyridine-3-carboxamide]: the IC50 came out at 0.029 µM.

In the case of `CNC(=O)c1c(-c2ccc(C)cc2)oc2nc(N(CCCCCCC(=O)O)S(C)(=O)=O)c(C3CC3)cc12` [Example 29.996, 7-(N-(5-cyclopropyl-3-(methylcarbamoyl)-2-p-tolylfuro[2,3-b]pyridin-6-yl)methylsulfonamido) heptanoic acid], the half-maximal inhibitory concentration (IC50) came out at 0.007 µM.

For the compound `CCc1ccc(-c2oc3nc(N(CCCC(C)C(=O)O)S(C)(=O)=O)c(C4CC4)cc3c2C(=O)NC)cc1` (stereo not drawn) [Example 29.9995, 5-(N-(5-cyclopropyl-2-(4-ethylphenyl)-3-(methylcarbamoyl)furo[2,3-b]pyridin-6-yl)methylsulfonamido)-2-methylpentanoic acid], the IC50 turned out to be 0.002 µM.

As to `CCc1cc2c(C(=O)NC)c(-c3ccc(F)cc3)oc2nc1N(CCCC(=O)N(C)C)S(C)(=O)=O` [Example 22.96, 6-(N-(4-(dimethylamino)-4-oxobutyl)methylsulfonamido)-5-ethyl-2-(4-fluorophenyl)-N-methylfuro[2,3-b]pyridine-3-carboxamide], the IC50 turned out to be 0.131 µM.

In the case of `CNC(=O)c1c(-c2ccc(C)cc2)oc2nc(N(CCCC3(C(=O)O)CCN(C(=O)C(C)(C)C)CC3)S(C)(=O)=O)c(C3CC3)cc12` [Example 29.999992, 4-(3-(N-(5-cyclopropyl-3-(methylcarbamoyl)-2-p-tolylfuro[2,3-b]pyridin-6-yl)methylsulfonamido)propyl)-1-pivaloylpiperidine-4-carboxylic acid], the half-inhibitory concentration (IC50) stood at 0.007 µM.

For the compound `CNC(=O)c1c(-c2ccc(F)cc2)oc2nc(N(CCCS(C)(=O)=O)S(C)(=O)=O)c(I)cc12` [Example 18.993, 2-(4-fluorophenyl)-5-iodo-N-methyl-6-(N-(3-(methylsulfonyl)propyl)methylsulfonamido)furo[2,3-b]pyridine-3-carboxamide], the 50% inhibitory concentration (IC50) came out at 0.112 µM.

Regarding `CNC(=O)c1c(-c2ccc(C)cc2)oc2nc(N(CCOCCBr)S(C)(=O)=O)c(C3CC3)cc12` [Example 29.99994, 6-(N-(2-(2-bromoethoxy)ethyl)methylsulfonamido)-5-cyclopropyl-N-methyl-2-p-tolylfuro[2,3-b]pyridine-3-carboxamide], the half-maximal inhibitory concentration (IC50) stood at 0.007 µM.

For `CNC(=O)c1c(-c2ccc(C)cc2)oc2nc(N(CCCC/C(C(=O)O)=C(\C)O)S(C)(=O)=O)c(C3CC3)cc12` [Example 46.1, (Z)-6-(N-(5-cyclopropyl-3-(methylcarbamoyl)-2-(p-tolyl)furo[2,3-b]pyridin-6-yl)methylsulfonamido)-2-(1-hydroxyethylidene)hexanoic acid], the IC50 was 0.003 µM.

Regarding `CCc1cc2c(C(=O)NC)c(-c3ccc(F)cc3)oc2nc1N(CCc1scnc1C)S(C)(=O)=O` [Example 22, 5-ethyl-2-(4-fluorophenyl)-N-methyl-6-(N-(2-(4-methylthiazol-5-yl)ethyl)methylsulfonamido)furo[2,3-b]pyridine-3-carboxamide], the IC50 amounted to 0.169 µM.

In the case of `CCc1cc2c(C(=O)NC)c(-c3ccc(F)cc3)oc2nc1N(CCC[S+](C)[O-])S(C)(=O)=O` (stereo not drawn) [Example 23.999, 5-ethyl-2-(4-fluorophenyl)-N-methyl-6-(N-(3-(methylsulfinyl)propyl)methylsulfonamido)furo[2,3-b]pyridine-3-carboxamide], the IC50 came to 0.079 µM.

In the case of `CNC(=O)c1c(-c2ccc(F)cc2)oc2nc(N(CCCCN)S(C)(=O)=O)c(I)cc12` [Example 20, 6-[(4-Amino-butyl)-methanesulfonyl-amino]-2-(4-fluoro-phenyl)-5-iodo-furo[2,3-b]pyridine-3-carboxylic acid methylamide], the half-maximal inhibitory concentration (IC50) was found to be 1.84 µM.

For the compound `CNC(=O)c1c(-c2ccc(F)cc2)oc2nc(N(CCCC(C)(C)C(=O)O)S(C)(=O)=O)c(C3CC3)cc12` [Example 27.1, 5-(N-(5-cyclopropyl-2-(4-fluorophenyl)-3-(methylcarbamoyl)furo[2,3-6]pyridin-6-yl)methylsulfonamido)-2,2-dimethylpentanoic acid], the IC50 was 0.012 µM.

`CCc1cc2c(C(=O)NC)c(-c3ccc(F)cc3)oc2nc1N(CCCCC(C)(C)O)S(C)(=O)=O` [Example 22.97, 5-ethyl-2-(4-fluorophenyl)-6-(N-(5-hydroxy-5-methylhexyl)methylsulfonamido)-N-methylfuro[2,3-b]pyridine-3-carboxamide]: the IC50 came to 0.046 µM.

On to `CNC(=O)c1c(-c2ccc(F)cc2)oc2nc(N(CCCNS(=O)(=O)c3ccccc3[N+](=O)[O-])S(C)(=O)=O)c(I)cc12` [Example 23.993, 2-(4-fluorophenyl)-5-iodo-N-methyl-6-(N-(3-(2-nitrophenylsulfonamido)propyl)methylsulfonamido) furo[2,3-b]pyridine-3-carboxamide], for which the concentration for half-maximal inhibition (IC50) worked out at 0.125 µM.

Regarding `CCc1ccc(-c2oc3nc(N(CCCCCO)S(C)(=O)=O)c(I)cc3c2C(=O)NC)cc1` [Example 23.9993, 2-(4-ethylphenyl)-6-(N-(5-hydroxypentyl)methylsulfonamido)-5-iodo-N-methylfuro[2,3-b]pyridine-3-carboxamide], the IC50 was determined as 0.026 µM.

Turning to `CCc1cc2c(C(=O)NC)c(-c3ccc(F)cc3)oc2nc1N(CCOCCOC)S(C)(=O)=O` [Example 21.8, 5-ethyl-2-(4-fluorophenyl)-6-(N-(2-(2-methoxyethoxy)ethyl)methylsulfonamido)-N-methylfuro[2,3-b]pyridine-3-carboxamide], the IC50 was 0.688 µM.

Take `CNC(=O)c1c(-c2ccc(F)cc2)oc2nc(N(C)S(C)(=O)=O)c(CCCCCNC(C)=O)cc12` [Example 14.3, 5-(5-Acetylamino-pentyl)-2-(4-fluoro-phenyl)-6-(methanesulfonyl-methyl-amino)-furo[2,3-b]pyridine-3-carboxylic acid methylamide]: the IC50 came out at 0.498 µM.

`CNC(=O)c1c(-c2ccc(C)cc2)oc2nc(N(CCCNS(=O)(=O)C(F)(F)F)S(C)(=O)=O)c(C3CC3)cc12` [Example 23.999992, 5-cyclopropyl-N-methyl-2-p-tolyl-6-(N-(3-(trifluoromethylsulfonamido)propyl)methylsulfonamido) furo[2,3-b]pyridine-3-carboxamide]: the IC50 is 0.002 µM.

Turning to `CNC(=O)c1c(-c2ccc(F)cc2)oc2nc(N(C)S(C)(=O)=O)c(C(C)(F)F)cc12` [Example 8, 5-(1,1-difluoroethyl)-2-(4-fluorophenyl)-N-methyl-6-(N-methylmethylsulfonamido)furo[2,3-b]pyridine-3-carboxamide], the half-inhibitory concentration (IC50) came to 0.125 µM.
